Experimental data published in US20210322622A1, “COMPOSITIONS AND METHODS FOR PREPARATION OF COMPOSITE POLYMER FILMS ON NON-CONDUCTING SUBSTRATES, INCLUDING BANDAGES, AND THEIR USE FOR TREATING WOUNDS” (The Johns Hopkins University, priority 2018, published 2021).

Columns and labels:
S. aureus strain Xen36 = assay: MIC of XEN36 for each antibiotic; type: cell-based, Staphylococcus aureus; settings: Staphylococcus aureus, XEN36, read-out: MIC of XEN36
Procedure: S. aureus strain Xen36 (PerkinElmer, Waltham, Mass.) previously derived from the clinical bacteremia isolate ATCC 49525 (Wright) was used in all experiments. (Francis et al., 2000). […] (Francis et al., 2000). Xen36 was prepared for inoculation as previously described. (Niska et al., 2013; Pribaz et al. (2012)).

[1] = In vitro release of antibiotics from PLGA/PCL composite coatings on titanium K-wires (HPLC); type: physicochemical; settings: stored coated pins, two-week in vitro release
Procedure: The release rate of the polymer composite film was measured by HPLC. Drug release studies were conducted using coated pins created with the same loading parameters as those used for later in vivo testing (10% (w/w) drug combinations) electrospun for 60 seconds at injection rates of 0.5 mL/h from each needle. Release rate of antibiotics from the composite polymer coating was characterized by placing coated pins in 200 μL pH 7.4 PBS buffer and incubating at 37° C. in an aluminum film-covered incubator to prevent possible light-induced drug degradation. Release media was changed at fixed time points over a period of two weeks and stored in a −20° C. freezer until analysis. Drug concentrations in release media for each day were determined via reverse-phase HPLC using a C-18 column in an Alliance HPLC system and Waters 2996 PDA detector. The mobile phase was a mixture of acetonitrile and water both mixed with 0.1% TFA acid, which was run at a gradient from (15%/85%) to (40%/60%) for a total runtime of 15 minutes per sample for the elution of Van/Rif and Lin/Rif drug loading groups. Elution of the Dap/Rif loading group was conducted using a mobile phase of (49%/51%) of acetonitrile and water both mixed with 0.1% TFA acid for a total run time of 11 minutes per sample. Concentrations of the drugs were quantified using wavelengths of 343 nm for Rif, 254 nm for Lin, 280 nm for Van and 223 nm for Dap using prepared standard curves for all three drugs. […] Quantification was performed through the derivatization of Gentamicin with ninhydrin at 95° C. for 15 minutes and detection with a Biotek Synergy2 plate reader.
(§1) Long-term efficacy of the antimicrobial activity was tested by storing electrospun pins at room temperature for 6 weeks, −20° C. for 6 weeks, and −80° C. for 8 months. Coated pins were protected from light during storage. These pins were then used in the same zone of inhibition assay as described hereinabove.
Drug release studies were conducted using coated pins created with the same loading parameters as detailed above. Release kinetics of antibiotics from the composite coating were characterized by placing coated pins in 200 μL of phosphate buffer saline (PBS, pH 7.4) at 37° C. Release media was changed daily over a period of two weeks and stored at −20° C. until analysis. Drug concentrations in release media were measured on days 1, 2, 3, 5, 7, 10 and 14 using a Waters Alliance 2690 HPLC system (Waters Corporation, Milford, Mass.) equipped with an Accucore RP-MS C18 column (100 mm×2.1 mm; Thermo Fisher Scientific) and a Waters 2996 PDA detector. The elution was carried out with a mobile phase of water and acetonitrile both mixed with 0.1% TFA at a flow rate of 1 mL/min at ambient temperature using a linear gradient elution program of 85% water to […] in 15 minutes. Concentrations of the drugs were quantified using wavelengths for Van (280 nm), Lin (254 nm), Dap (224 nm) and Rif (263 nm).

S. aureus = assay: In vitro zone of inhibition assay of coated K-wires; type: cell-based, Staphylococcus aureus; settings: 6 weeks room temperature, 6 weeks −20° C., 8 months
Description: A zone of inhibition assay was used as an additional assay to evaluate the in vitro release of antibiotic(s) from the composite coating. Tryptic soy agar bacterial plates were inoculated with S. aureus bacteria cells to yield a bacterial lawn after overnight culture. After bacterial inoculation and before culturing the plates, two identical titanium K-wires loaded with either 10 w/w % Lin, 10 w/w % Van, or 10 w/w % Dap alone, or in combination with Rif were placed in two separate areas on the plate. After culturing the plates at 37° C. for 24 hours, the antimicrobial activity of the eluded antibiotic(s) into the agar was measured as a zone of inhibition (diameter [mm]) of the bacterial growth around the K-wire.
as §1, with “hereinabove. These antimicrobial results were further confirmed with a two-week in vitro release study to determine release kinetics after storage.” for “hereinabove.”
Tryptic soy agar (TSA) bacterial plates were inoculated with S. aureus to yield a bacterial lawn after overnight culture. Before culturing the plates, two titanium K-wires each loaded with the same combination of antibiotics from each set were placed in two separate areas on the plate. After culturing at 37° C. for 24 hours, the zone of inhibition (ZOI) (diameter/mm) of bacterial growth were measured.

[2] = test system: S. aureus bioluminescent strain Xen36; assay: Mouse model of prosthetic joint infection (PJI): in vivo bioluminescence imaging and CFU; set-up: species or system mice; settings: intravenous prophylaxis 110 mg/kg at −1 and 16 hours
Description: A previously established mouse model of a prosthetic joint infection (PJI) (Pribaz et al., 2012) was used to evaluate the efficiencies of the composite coatings in providing sustained in situ release and in vivo antimicrobial activity (FIG. 5A, FIG. 5B, FIG. 5C, FIG. 5D, FIG. 5E, FIG. 5F, FIG. 5G, FIG. 5H, FIG. 5I, FIG. 5J, FIG. 5K, and FIG. 5L). A medical-grade titanium K-wire (0.5 mm in diameter, 9 mm in length) coated with PLGA/PCL fiber coating ± antibiotics was surgically placed into the right distal femur of mice. Briefly, a medial parapatellar arthrotomy on the right knee was performed with lateral displacement of the quadriceps-patellar complex. […]
Noninvasive and longitudinal measurements of the bacterial burden were performed using in vivo bioluminescence imaging of the bioluminescent signals from live and actively metabolizing Xen36 bacteria at the site of infection in the post-operative knee joints of anesthetized mice over a 2-week course of infection using the IVIS Lumina III in vivo imaging system (PerkinElmer) on days 0, 1, 3, 5, 7, and 14. Data are presented on a color scale overlaid on a grayscale photograph of mice and quantified as maximum radiance (photons/second/cm^2/steradian) within a circular region of interest (1×10^3 pixels) using Living Image software. […]

Question: With `CN[C@H](CC(C)C)C(=O)N[C@H]1C(=O)N[C@@H](CC(N)=O)C(=O)N[C@H]2C(=O)N[C@H]3C(=O)N[C@H](C(=O)N[C@H](C(=O)O)c4cc(O)cc(O)c4-c4cc3ccc4O)[C@H](O)c3ccc(c(Cl)c3)Oc3cc2cc(c3O[C@@H]2O[C@H](CO)[C@@H](O)[C@H](O)[C@H]2O[C@H]2C[C@](C)(N)[C@H](O)[C@H](C)O2)Oc2ccc(cc2Cl)[C@H]1O` [Van, vancomycin] as the molecule, how does the MIC (S. aureus strain Xen36) read?
Answer: 0.5 mg/L

Question: What about the “release kinetics after storage” value [1] of the same molecule?
Answer: no difference in the release kinetics

Question: What about the “antimicrobial activity (zone of inhibition) after storage versus freshly prepared coatings” value (S. aureus) of the same molecule?
Answer: no significant loss of antimicrobial activity

Question: What about the BLI signals [2] of the same molecule?
Answer: decreased BLI signals

Question: What about the “CFU from bone/joint tissue and implants” value [2] of the same molecule?
Answer: the infection was not cleared as CFU were readily detected
